PubChem BioAssay (NCI)
Where “and” joins values, the source holds several entries; their conditions need not be identical. Equal entries are not always repeated.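 Cultured in 96-well plates, cells were exposed to test compound for 48 hours across five concentrations. GI50 is the concentration that inhibits growth by half. Definition used: TGI = concentration required for complete inhibition of growth.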

Assays:
Test in all cases: NCI tumour cell line growth inhibition, 48 h
ACHN renal = system: ACHN renal
OVCAR-5 ovarian = system: OVCAR-5 ovarian
LOX IMVI melanoma = system: LOX IMVI melanoma
DU-145 prostate = system: DU-145 prostate
CAKI-1 renal = system: CAKI-1 renal
NCI-H23 lung = system: NCI-H23 lung
OVCAR-3 ovarian = system: OVCAR-3 ovarian
SNB-75 CNS = system: SNB-75 CNS
SF-295 CNS = system: SF-295 CNS

| Compound | TGI (ACHN renal) | TGI (OVCAR-5 ovarian) | TGI (LOX IMVI melanoma) | TGI (DU-145 prostate) | TGI (CAKI-1 renal) | TGI (NCI-H23 lung) | TGI (OVCAR-3 ovarian) | TGI (SNB-75 CNS) | TGI (SF-295 CNS) | GI50 (NCI-H23 lung) | GI50 (OVCAR-3 ovarian) | GI50 (SNB-75 CNS) |
| --- | --- | --- | --- | --- | --- | --- | --- | --- | --- | --- | --- | --- |
| COc1c(C)c(C/C=C(\C)CC/C=C(\C)CC/C=C(\C)CCC=C(C)C)c(OC)c(OC)c1OC | > 100 µM | > 100 µM | > 100 µM | > 100 µM | > 100 µM | > 100 µM | > 100 µM | > 100 µM | > 100 µM | – | – | – |
| OC1(c2ccccc2)CC2CCC(C1)N2CCCC(O)(c1ccccc1)c1ccccc1 (stereo not drawn) | 31.5 µM | 44.4 µM | 22.4 µM | 56.8 µM | 27.1 µM | 25.7 µM | 30 µM | 23.8 µM | 10.6 µM | – | – | – |
| Oc1cc(O)c2c(c1)O[C@H](c1ccc(O)c(O)c1)[C@@H](O)C2 | > 100 µM | > 100 µM | > 100 µM | > 100 µM | > 100 µM | > 100 µM | > 100 µM | > 100 µM | > 100 µM | – | – | – |
| COc1ccc(/C=C2/N=C(N/N=C\C(O)C(O)C(O)CO)NC2=O)cc1 (stereo not drawn) | > 100 µM | > 100 µM | > 100 µM | > 100 µM | > 100 µM | > 100 µM | > 100 µM and 67.8 µM | > 100 µM | > 100 µM | > 100 µM and 42.1 µM | > 100 µM and 24.3 µM | > 100 µM and 41.4 µM |
| Cn1c(N/N=C/c2ccccc2)nc(-c2ccc3c(c2)OCO3)c(C#N)c1=O | > 100 µM | > 100 µM | > 100 µM | > 100 µM | > 100 µM | > 100 µM | 90.6 µM | > 100 µM | > 100 µM | – | – | – |
